# Assay results as given in ChEMBL document CHEMBL1159116, “Discovery of C-imidazole azaheptapyridine FPT inhibitors” (Bioorg Med Chem Lett, 2010).
# Columns and labels:
# NIH3T3 = experiment: Cytotoxicity against mouse H-Ras transformed NIH/3T3 cells by soft agar colony formation assay; assay type: functional, cell-based
# [1] = Inhibition of farnesyl protein transferase assessed as transfer of [3H]farnesyl from [3H]farnesyl pyrophosphate to […]
# Rattus norvegicus = experiment: (§1) AUC (0 to 6 hrs) in rat at 10 mg/kg; assay type: ADME, organism-based, Plasma; set-up: time < 6 hr, dose 10 mg/kg; conditions: in vivo, 6 h
# [2] = as §1; assay type: ADME, organism-based, Plasma; set-up: time < 6 hr, dose 10 mg/kg; conditions: plasma
# [3] = Mus musculus, NIH3T3, read-out: IC50
smiles,measurement,setting,value
CC(=O)O[C@H](C1=Cc2cccnc2[C@@H](N2CCN(C(=O)OC(C)(C)C)CC2)c2ccc(Cl)cc21)c1cncn1C,IC50,NIH3T3; [3],1 nM
same,IC50,[1],5.5 nM
CO[C@@H](C1=Cc2cccnc2[C@@H](N2CCN(C(=O)OC(C)(C)C)CC2)c2ccc(Cl)cc21)c1cncn1C,IC50,NIH3T3; [3],4 nM
same,IC50,[1],2.1 nM
Cn1cncc1[C@@H](O)C1=Cc2cccnc2[C@@H](N2CCN(C(=O)OC(C)(C)C)CC2)c2ccc(Cl)cc21,IC50,NIH3T3; nih3t3,Not Active
same,IC50,[1],12 nM
Cn1cncc1[C@H](O)C1=Cc2cccnc2[C@@H](N2CCN(C(=O)OC3CCCC3)CC2)c2ccc(Cl)cc21,IC50,NIH3T3; [3],0.5 nM
same,IC50,[1],0.76 nM
CO[C@H](C1=Cc2cccnc2[C@@H](N2CCN(C(=O)OC(C)(C)C)CC2)c2ccc(Cl)cc21)c1cncn1C,IC50,NIH3T3; [3],10 nM
same,IC50,[1],4.8 nM
Cn1cncc1[C@H](O)C1=Cc2cccnc2[C@@H](N2CCN(C(=O)NC(C)(C)C)CC2)c2ccc(Cl)cc21,IC50,NIH3T3; [3],0.5 nM
same,IC50,[1],0.4 nM
Cn1cncc1[C@H](O)C1=Cc2cccnc2[C@@H](N2CCN(C(=O)NC3CCCCC3)CC2)c2ccc(Cl)cc21,IC50,NIH3T3; [3],18 nM
same,IC50,[1],0.47 nM
Cn1cncc1CC1=Cc2cccnc2[C@@H](N2CCN(C(=O)Nc3ccc(C#N)cc3)CC2)c2ccc(Cl)cc21,IC50,NIH3T3; [3],0.5 nM
same,IC50,[1],0.29 nM
N#Cc1ccc(NC(=O)N2CCN([C@H]3c4ccc(Cl)cc4C(Cc4cnc[nH]4)=Cc4cccnc43)CC2)cc1,IC50,NIH3T3; [3],4 nM
same,IC50,[1],0.31 nM
Cn1cncc1[C@H](O)C1=Cc2cccnc2[C@@H](N2CCN(C(=O)Nc3ccc(C#N)cc3)CC2)c2ccc(Cl)cc21,AUC,Rattus norvegicus,0.1 µM·h
same,IC50,NIH3T3; [3],0.5 nM
same,IC50,[1],0.5 nM
Cn1cncc1[C@H](O)C1=Cc2cccnc2[C@@H](N2CCN(C(=O)NCc3ccccc3)CC2)c2ccc(Cl)cc21,IC50,NIH3T3; [3],2.7 nM
same,IC50,[1],0.13 nM
Cn1cncc1[C@H](O)C1=Cc2cccnc2[C@@H](N2CCN(C(=O)OC3CCCCC3)CC2)c2ccc(Cl)cc21,IC50,NIH3T3; [3],1 nM
same,IC50,[1],1 nM
Cn1cncc1[C@H](O)C1=Cc2cccnc2[C@@H](N2CCN(C(=O)OC3(C)CCCCC3)CC2)c2ccc(Cl)cc21,IC50,NIH3T3; [3],1 nM
same,IC50,[1],0.3 nM
Cn1cncc1[C@H](O)C1=Cc2cccnc2[C@@H](N2CCN(C(=O)OC(C)(C)C)CC2)c2ccc(Cl)cc21,AUC(0-t) at 6 h,[2],2.57 µM·h
same,IC50,NIH3T3; [3],0.5 nM
same,IC50,[1],0.38 nM
Cn1cncc1CC1=Cc2cccnc2[C@H](N2CCN(C(=O)Nc3ccc(C#N)cc3)CC2)c2ccc(Cl)cc21,IC50,NIH3T3; nih3t3,Not Active
same,IC50,[1],9.6 nM
CC(C)OC(=O)N1CCN([C@H]2c3ccc(Cl)cc3C([C@@H](O)c3cncn3C)=Cc3cccnc32)CC1,IC50,NIH3T3; [3],0.5 nM
same,IC50,[1],0.75 nM
